# Data as given in patent publication US20090047310A1, “Use of a griffonia extract, in particular griffonia simplicifolia, in a cosmetic or dermatological composition for mitigating pigmentation of skin and skin appendages” (priority 2005, published 2009).
# Tested on: Normal human melanocytes
# Test: Melanogenesis: quantity of melaninic pigments in cultured normal human melanocytes
# Assay type: cell-based
# Settings: ten days culture
# Procedure: Normal human melanocytes are cultured for ten days in the absence and in the presence of non-cytotoxic quantities of the dry extract. The quantity of melaninic pigments is evaluated by extraction using 0.5 N soda and optical density measurement.
# The procedure is as before for the dry extract.
# The procedure is as before for the dry extract using 5-HTP extracted from the seeds of Griffonia simplicifolia.
structure (smiles),measurement,setting,value
"N[C@@H](Cc1c[nH]c2ccc(O)cc12)C(=O)O [5-HTP, 5-hydroxytryptophan]","quantity of melanin produced by the melanocytes, % of the control","0.0016 mg/ml, p less than 0.05",93%
same,"quantity of melanin produced by the melanocytes, % of the control","0.008 mg/ml, p less than 0.01",89%
same,"quantity of melanin produced by the melanocytes, % of the control","0.04 mg/ml, p less than 0.01",80%
